Assay results reported in patent US6890736B1, “Methods for producing proteins in cultured cells” (Immunex Corporation, priority 2002, dated 2005).
“And” between values parts separate entries of the source, which are not always exact repeats. Equal values may be shown once.

System: cell line 25H9 (CHO cells that produce IL-1R-II protein)
Assay: Example 2: optimization of temperature and decitabine concentration, IL-1R-II production
Format: cell-based, Chinese hamster
Description: About 2×10^6 cells of cell line 25H9 were inoculated into 30 milliliters of serum-free medium and incubated at the temperatures indicated in Table 1 in vented shake flasks. At the times indicated in Table 1, samples were taken from each flask to determine IL-1R-II titer, cell number, and cell viability. IL-1R-II protein titer was determined by ELISA assay. Cell number was determined by counting cells in a hemocytometer. Cell viability was determined by trypan blue staining and counting stained cells in a hemocytometer. Cumulative viable cell density (CVCD) is the area under the curve of a plot of the viable cell density versus time (in units of cells/ml/day). Productivity (pg of IL-1R-II/cell/day) was determined by dividing the protein titer on a particular day by the CVCD on the same day. Cells were fed with amino acids on days 2 and 5, and dextrose was added periodically in order to maintain levels above 2.0 g/L. All samples were done in duplicate, and the data shown is an average value.
To determine an optimum temperature and decitabine concentration, three temperatures (30° C., 31° C., and 32° C.) and three decitabine concentrations (10 μM, 15 μM, and 20 μM) were tested. A 31° C. culture containing 0.5 mM sodium butyrate was grown as a control. […] See e.g. International Application Nos. WO 89/06686 and WO 87/05626. The experiment was performed as in Example 1 except that the inducer concentrations, temperatures, and days at which data was collected are as indicated in Table 2 and FIG. 1.

[1] = 30° C., 10 μM decitabine, day 8
[2] = 30° C., 15 μM decitabine, day 3
[3] = 30° C., 15 μM decitabine, day 6
[4] = 30° C., 20 μM decitabine, day 3
[5] = 30° C., 20 μM decitabine, day 6
[6] = 30° C., 20 μM decitabine, day 8
[7] = 31° C., 10 μM decitabine, day 3
[8] = 31° C., 10 μM decitabine, day 6
[9] = 31° C., 10 μM decitabine, day 8
[10] = 31° C., 15 μM decitabine, day 3
[11] = 31° C., 15 μM decitabine, day 6
[12] = 31° C., 15 μM decitabine, day 8
[13] = 31° C., 20 μM decitabine, day 3
[14] = 31° C., 20 μM decitabine, day 6
[15] = 31° C., 20 μM decitabine, day 8
[16] = 32° C., 10 μM decitabine, day 3
[17] = 32° C., 10 μM decitabine, day 6
[18] = 32° C., 10 μM decitabine, day 8
[19] = 32° C., 15 μM decitabine, day 3
[20] = 32° C., 15 μM decitabine, day 6
[21] = 32° C., 20 μM decitabine, day 3
[22] = 32° C., 20 μM decitabine, day 6
[23] = 32° C., 20 μM decitabine, day 8

Nc1ncn([C@H]2C[C@H](O)[C@@H](CO)O2)c(=O)n1 [decitabine, 5-aza-2′-deoxycytidine]
Productivity (30° C., 10 μM decitabine, day 6): 10.9 pg IL-1R-II/cell/day
IL1R-II Titer [1]: 260.5 µg/mL
Productivity [1]: 14.4 pg IL-1R-II/cell/day
IL1R-II Titer (30° C., 15 μM decitabine, day 0): 0.0 µg/mL
IL1R-II Titer [2]: 77.2 µg/mL
Productivity [2]: 11.3 pg IL-1R-II/cell/day
IL1R-II Titer [3]: 173.0 µg/mL
Productivity [3]: 12.4 pg IL-1R-II/cell/day
IL1R-II Titer (30° C., 15 μM decitabine, day 8): 283.0 µg/mL
IL1R-II Titer (30° C., 20 μM decitabine, day 0): 0.0 µg/mL
IL1R-II Titer [4]: 83.6 µg/mL
Productivity [4]: 10.6 pg IL-1R-II/cell/day
IL1R-II Titer [5]: 219.0 µg/mL
Productivity [5]: 13.4 pg IL-1R-II/cell/day
IL1R-II Titer [6]: 346.0 µg/mL
Productivity [6]: 16.9 pg IL-1R-II/cell/day
IL-1R-II titer versus culture containing 0.5 mM sodium butyrate (31° C., 10 μM decitabine, 8 days): higher titer
IL1R-II Titer (31° C., 10 μM decitabine, day 0): 0.0 µg/mL
IL1R-II Titer [7]: 164.0 µg/mL
Productivity [7]: 18.8 pg IL-1R-II/cell/day
IL1R-II Titer [8]: 448.5 µg/mL
Productivity [8]: 21.3 pg IL-1R-II/cell/day
IL1R-II Titer [9]: 1087 µg/mL and 1087.0 µg/mL
Productivity [9]: 38.1 pg IL-1R-II/cell/day
IL1R-II Titer (31° C., 15 μM decitabine, day 0): 0.0 µg/mL
IL1R-II Titer [10]: 174.0 µg/mL
Productivity [10]: 22.0 pg IL-1R-II/cell/day
IL1R-II Titer [11]: 440.0 µg/mL
Productivity [11]: 22.9 pg IL-1R-II/cell/day
IL1R-II Titer [12]: 718.0 µg/mL
Productivity [12]: 27.8 pg IL-1R-II/cell/day
IL1R-II Titer (31° C., 20 μM decitabine, day 0): 0.0 µg/mL
IL1R-II Titer [13]: 162.0 µg/mL
Productivity [13]: 17.6 pg IL-1R-II/cell/day
IL1R-II Titer [14]: 426.0 µg/mL
Productivity [14]: 19.6 pg IL-1R-II/cell/day
IL1R-II Titer [15]: 774.5 µg/mL
Productivity [15]: 27.1 pg IL-1R-II/cell/day
productivity on a per cell basis versus control culture grown in butyrate (31° C., all cultures grown in decitabine): comparable to, and in some cases greater than
IL-1R-II produced in 10 μM versus 15 μM or 20 μM decitabine (32° C.): produced more IL-1R-II
IL1R-II Titer (32° C., 10 μM decitabine, day 0): 0.0 µg/mL
IL1R-II Titer [16]: 186.0 µg/mL
Productivity [16]: 23.1 pg IL-1R-II/cell/day
IL1R-II Titer [17]: 407.0 µg/mL
Productivity [17]: 21.5 pg IL-1R-II/cell/day
IL1R-II Titer [18]: 610.5 µg/mL
Productivity [18]: 24.5 pg IL-1R-II/cell/day
IL1R-II Titer (32° C., 15 μM decitabine, day 0): 0.0 µg/mL
IL1R-II Titer [19]: 189.0 µg/mL
Productivity [19]: 23.5 pg IL-1R-II/cell/day
IL1R-II Titer [20]: 410.0 µg/mL
Productivity [20]: 22.5 pg IL-1R-II/cell/day
IL1R-II Titer (32° C., 15 μM decitabine, day 8): 478.0 µg/mL
IL1R-II Titer (32° C., 20 μM decitabine, day 0): 0.0 µg/mL
IL1R-II Titer [21]: 184.5 µg/mL
Productivity [21]: 22.2 pg IL-1R-II/cell/day
IL1R-II Titer [22]: 492.0 µg/mL
Productivity [22]: 26.3 pg IL-1R-II/cell/day
IL1R-II Titer [23]: 488.5 µg/mL
Productivity [23]: 20.7 pg IL-1R-II/cell/day
